From US12491185B2, “Inhibitors of mPTP” (NRG Therapeutics Ltd, priority 2023, dated 2025) come the findings set out here.

In the test the test system is mPTP. Put plainly: mPTP activity (Ca2+ retention) assay in isolated rat liver mitochondria. The format is biochemical. The conditions noted are these: examples tested by different contract research organisations, believed comparable. The text has this:
Pharmacological inhibition or modulation of the mPTP can be measured in well characterised ‘Ca^2+ retention’ assays performed in isolated mitochondria. In vitro, isolated mitochondria rapidly sequester exogenous Ca^2+ until the intramitochondrial Ca^2+ concentration reaches the threshold for mPTP activation. Once the pore is activated, mitochondrial integrity is compromised and the stored Ca^2+ is released. The distribution of Ca^2+ between extra- and intra-mitochondrial compartments can be measured in real time with the use of membrane-impermeant Ca^2+ sensitive fluorescent dyes. Depending on the configuration of the assay, inhibition or modulation of the mPTP either delays the opening of the pore or increases the concentration of Ca^2+ required to induce mPTP opening.
MPTP activity was measured in mitochondria freshly isolated from female Sprague Dawley (250 to 300 gram) rat livers using the following method. Cervical dislocation was performed on the rat. The liver was then perfused in-situ with −40 ml cold Dulbecco's Phosphate Buffered Saline (DPBS) prior to dissection and transferred into 30 ml Isolation Buffer (250 mM Sucrose, 10 mM KCl, 1 mM EGTA, 1 mM EDTA, 25 mM HEPES, adjusted to pH 7.5 with 1M NaOH). Each lobe of the liver was then removed from the buffer, minced using tweezers and a scalpel into −5 mm pieces then transferred into a 50 ml Potterton dounce homogenization tube on ice containing 30 ml ice-cold centrifugation buffer (300 mM Trehalose, 25 mM HEPES, 1 mM EGTA, 1 mM EDTA, 10 mM KCl, adjusted to pH 7.5 with 1M NaOH and supplemented with 0.1% bovine serum albumin (BSA) and complete protease inhibitor cocktail (one tablet of inhibitor per 50 mls of buffer). Homogenisation was carried out using a teflon pestle at 1800 rpm. The slurry was centrifuged at 800 g for 10 min at 4° C., then the supernatant centrifuged at 10,000 g for 10 min. The pellet was washed once with FLIPR assay buffer (75 mM Mannitol, 25 mM Sucrose, 5 mM Potassium Phosphate Monobasic, 20 mM Tris base, 100 mM KCl, 0.1% BSA adjusted to pH 7.4 with 5M HCl) centrifuged again, then resuspended in FLIPR assay buffer to a concentration of 8.8 mg/ml protein.
Tested compounds (10 mM stock in DMSO) were serially diluted in DMSO in half log steps to generate 10 test concentrations (final concentrations in assay 30 μM to 1 nM). An intermediate dilution of 5 μl DMSO samples into 247 μl FLIPR assay buffer was carried out prior to transfer of 5 μl into duplicate wells of a 384 well polypropylene assay plate. Control wells were 0.5% (v/v) DMSO and 5 μM cyclosporin A.
A stock mitochondria/Fluo5N assay solution was prepared in 5.6 ml FLIPR assay buffer (at RT) supplemented with succinate disodium salt (10 mM), rotenone (1 μM), Fluo5N pentapotassium salt (2 μM) and 1 ml mitochondria suspension, then transferred (15 μl) into the assay plate containing test compounds and incubated for 10 min at RT. Assay plates were processed for fluorescence detection on either a FLIPR Tetra (Molecular Devices) or CLARIOstar (BMG) plate reader. For kinetic fluorescence detection on the FLIPR, dye fluorescence was measured every 3 sec for a total of 10 min. After 12 sec, a 2.5 μl bolus of CaCl2 (75 μM) was added from a source plate containing 675 μM CaCl2 in FLIPR assay buffer. Alternatively, the 2.5 μl addition of CaCl2 was performed using a Viaflow 384, plates were incubated at RT for 10 min, and dye fluorescence measured after 10 min on the CLARIOstar plate reader. pIC50 values for tested compounds were calculated using the fluorescence value collected at the 10 min timepoint on either plate reader, with % inhibition calculated using the DMSO control and cyclosporin A values as 0 and 100% respectively.
Regarding `Cc1cc(Cl)ccc1CC1(CNC(=O)c2nn(C)c(=O)[nH]2)CCC1` [Example 91, N-((1-(4-Chloro-2-methylbenzyl)cyclobutyl)methyl)-1-methyl-5-oxo-4,5-dihydro-1H-1,2,4-triazole-3-carboxamide], the “mPTP Rat liver pIC50” value amounted to 5.75.

On to `Cn1nc(C(=O)NCC(Cc2ccc(F)cc2F)C2CC2)[nH]c1=O` (stereo not drawn) [Example 93, N-(2-Cyclopropyl-3-(2,4-difluorophenyl)propyl)-1-methyl-5-oxo-4,5-dihydro-1H-1,2,4-triazole-3-carboxamide], for which the “mPTP Rat liver pIC50” value worked out at 6.58.

As for `Cc1cccc(CC2(CNC(=O)c3nn(C)c(=O)[nH]3)CCC2)c1F` [Example 94, N-((1-(2-Fluoro-3-methylbenzyl)cyclobutyl)methyl)-1-methyl-5-oxo-4,5-dihydro-1H-1,2,4-triazole-3-carboxamide], the “mPTP Rat liver pIC50” value turned out to be 5.77.

For the compound `Cn1nc(C(=O)NC[C@@H](Cc2ccc(F)cc2F)C2CC2)[nH]c1=O` [Example 97, (S)—N-(2-cyclopropyl-3-(2,4-difluorophenyl)propyl)-1-methyl-5-oxo-4,5-dihydro-1H-1,2,4-triazole-3-carboxamide], the “mPTP Rat liver pIC50” value came to 5.66.

With `Cn1nc(C(=O)NCC2(Cc3ccc(F)cc3OC(F)(F)F)CCC2)[nH]c1=O` [Example 102, N-((1-(4-fluoro-2-(trifluoromethoxy)benzyl)cyclobutyl)methyl)-1-methyl-5-oxo-4,5-dihydro-1H-1,2,4-triazole-3-carboxamide], the “mPTP Rat liver pIC50” value is listed as less than 4.57.

`Cn1nc(C(=O)NCC(Cc2ccc(F)cc2F)C2CCCC2)[nH]c1=O` (stereo not drawn) [Example 103, N-(2-cyclopentyl-3-(2,4-difluorophenyl)propyl)-1-methyl-5-oxo-4,5-dihydro-1H-1,2,4-triazole-3-carboxamide]: the “mPTP Rat liver pIC50” value is less than 4.57.

For `Cn1nc(C(=O)NCC2(Cc3ccc(C(F)(F)F)cc3F)CCC2)[nH]c1=O` [Example 104, N-((1-(2-fluoro-4-(trifluoromethyl)benzyl)cyclobutyl)methyl)-1-methyl-5-oxo-4,5-dihydro-1H-1,2,4-triazole-3-carboxamide], the “mPTP Rat liver pIC50” value is listed as less than 4.57.

Consider `O=C(NCC1(Cc2ccc(F)cc2F)CCC1)c1nnc(C(F)(F)F)[nH]1` [Example 105, N-((1-(2,4-difluorobenzyl)cyclobutyl)methyl)-5-(trifluoromethyl)-4H-1,2,4-triazole-3-carboxamide], for which the “mPTP Rat liver pIC50” value was less than 4.57.

With `CSc1ccc(CC2(CNC(=O)c3nn(C)c(=O)[nH]3)CCC2)cc1` [Example 106, 1-methyl-N-((1-(4-(methylthio)benzyl)cyclobutyl)methyl)-5-oxo-4,5-dihydro-1H-1,2,4-triazole-3-carboxamide], the “mPTP Rat liver pIC50” value is reported as less than 4.57.

Regarding `Cn1nc(C(=O)NCC2(Cc3ccc(F)cc3F)CCC2)n(C)c1=O` [Example 107, N-((1-(2,4-difluorobenzyl)cyclobutyl)methyl)-1,4-dimethyl-5-oxo-4,5-dihydro-1H-1,2,4-triazole-3-carboxamide], the “mPTP Rat liver pIC50” value is listed as less than 4.57.

Regarding `Cc1cccc(C)c1CC1(CNC(=O)c2nn(C)c(=O)[nH]2)CCC1` [Example 108, N-((1-(2,6-dimethylbenzyl)cyclobutyl)methyl)-1-methyl-5-oxo-4,5-dihydro-1H-1,2,4-triazole-3-carboxamide], the “mPTP Rat liver pIC50” value is reported as less than 4.57.

Take `Cn1nc(C(=O)NCC2(Cc3cccc(C(F)(F)F)c3)CCC2)[nH]c1=O` [Example 110, 1-methyl-5-oxo-N-((1-(3-(trifluoromethyl)benzyl)cyclobutyl)methyl)-4,5-dihydro-1H-1,2,4-triazole-3-carboxamide]: the “mPTP Rat liver pIC50” value was less than 4.57.

Consider `CCc1ccc(CC2(CNC(=O)c3nn(C)c(=O)[nH]3)CCC2)cc1` [Example 111, N-((1-(4-ethylbenzyl)cyclobutyl)methyl)-1-methyl-5-oxo-4,5-dihydro-1H-1,2,4-triazole-3-carboxamide], for which the “mPTP Rat liver pIC50” value is on record as less than 4.57.

On to `CCC(CNC(=O)c1nn(C)c(=O)[nH]1)Cc1cscn1` (stereo not drawn) [Example 112, 1-methyl-5-oxo-N-(2-(thiazol-4-ylmethyl)butyl)-4,5-dihydro-1H-1,2,4-triazole-3-carboxamide], for which the “mPTP Rat liver pIC50” value was less than 4.57.

On to `CCC(CNC(=O)c1nn(C)c(=O)[nH]1)Cc1cnn(C)c1` (stereo not drawn) [Example 113, 1-methyl-N-(2-((1-methyl-1H-pyrazol-4-yl)methyl)butyl)-5-oxo-4,5-dihydro-1H-1,2,4-triazole-3-carboxamide], for which the “mPTP Rat liver pIC50” value was less than 4.57.

With `Cn1nc(C(=O)NC[C@H](Cc2ccc(F)c(F)c2)C2CC2)[nH]c1=S` [Example 118, (R)-N-(2-cyclopropyl-3-(3,4-difluorophenyl)propyl)-1-methyl-5-thioxo-4,5-dihydro-1H-1,2,4-triazole-3-carboxamide], the “mPTP Rat liver pIC50” value is reported as 6.26.

With `Cn1nc(C(=O)NC[C@H](Cc2ccc(F)c(F)c2)C2CC2)[nH]c1=S` [Example 119], the “mPTP Rat liver pIC50” value is reported as 5.9.

`Cn1nc(C(=O)NCC2(Cc3ccc(F)cc3F)CCCO2)[nH]c1=O` (stereo not drawn) [Example 120]: the “mPTP Rat liver pIC50” value was found to be 6.51.

Regarding `O=C(NCC1(Cc2ccc(F)cc2F)CC12CC2)c1cncc(=O)[nH]1` (stereo not drawn) [Example 122], the “mPTP Rat liver pIC50” value is 6.31.

As for `Cn1nc(C(=O)NCC2(Cc3ccc(F)cc3F)CC23CC3)[nH]c1=O` (stereo not drawn) [Example 123], the “mPTP Rat liver pIC50” value is 7.04.

Consider `Cn1nc(C(=O)NC[C@H](Cc2ccccc2)C2CC2)[nH]c1=O` [Example 124], for which the “mPTP Rat liver pIC50” value is 6.76.

Consider `CC[C@H](CNC(=O)c1nn(C)c(=O)[nH]1)Cc1c(F)cc(F)cc1F` [Example 125], for which the “mPTP Rat liver pIC50” value is listed as 6.55.

Take `Cn1oc(C(=O)NCC2(Cc3ccc(F)cc3F)CCC2)cc1=O` [Example 126]: the “mPTP Rat liver pIC50” value is reported as less than 4.57.

As to `O=C(NCC1(Cc2ccc(F)cc2F)CCC1)c1cn[nH]c(=O)c1` [Example 127], the “mPTP Rat liver pIC50” value is on record as less than 4.57.

Regarding `O=C(NCC1(Cc2ccc(F)cc2F)CCC1)c1cc(O)ccn1` [Example 128], the “mPTP Rat liver pIC50” value came out at 6.01.

Regarding `CCC(F)(CNC(=O)c1nn(C)c(=O)[nH]1)Cc1ccc(F)cc1F` (stereo not drawn) [Example 129, N-(2-(2,4-difluorobenzyl)-2-fluorobutyl)-1-methyl-5-oxo-4,5-dihydro-1H-1,2,4-triazole-3-carboxamide], the “mPTP Rat liver pIC50” value was 6.45.

In the case of `O=C(NCC1(Cc2ccc(F)cc2F)CCC1)c1ccn[nH]c1=O` [Example 134, N-((1-(2,4-difluorobenzyl)cyclobutyl)methyl)-3-oxo-2,3-dihydropyridazine-4-carboxamide], the “mPTP Rat liver pIC50” value is less than 4.57.

Turning to `CC[C@@H](Cc1ccccc1)C(C)NC(=O)c1nn(C)c(=O)[nH]1` (stereo partly drawn) [Example 135], the “mPTP Rat liver pIC50” value was 6.52.

Consider `O=C(NC[C@H](Cc1ccc(F)cc1F)C1CC1)c1cc(=O)[nH]o1` [Example 136], for which the “mPTP Rat liver pIC50” value stood at 6.39.

Take `O=C(NC[C@H](Cc1ccc(F)cc1F)C1CC1)c1coc(=O)[nH]1` [Example 137]: the “mPTP Rat liver pIC50” value worked out at 5.58.

On to `O=C(NCC1(Cc2ccc(F)cc2F)CCC1)c1c[nH]c(=O)cn1` [Example 138, N-((1-(2,4-difluorobenzyl)cyclobutyl)methyl)-5-oxo-4,5-dihydropyrazine-2-carboxamide], for which the “mPTP Rat liver pIC50” value is given as less than 4.57.

In the case of `O=C(NCC1(Cc2ccc(F)c(F)c2)CCC1)c1cncc(=O)[nH]1` [Example 139], the “mPTP Rat liver pIC50” value worked out at 5.73.

On to `O=C(NCC1(Cc2ccc(F)cc2F)CCC1)c1nnn[nH]1` [Example 140], for which the “mPTP Rat liver pIC50” value was less than 4.57.
